From paper PMC8161026, “Synthesis and Anticancer Activity Evaluation of 5-[2-Chloro-3-(4-nitrophenyl)-2-propenylidene]-4-thiazolidinones” (Molecules, 2021)

How the values were obtained:
SK-MEL-2 [1] = settings: SK-MEL-2 (Melanoma), 48 h, SRB
NCI-H23 [2] = experiment: cells; settings: Homo sapiens, NCI-H23, 48 h; for CC50: read-out: LC50
TK-10 = experiment: NCI DTP 60 cell line screen, SRB; settings: for GI50 / CC50: Homo sapiens, TK-10, 48 h; for CC50: read-out: LC50; for TGI: TK-10 (Renal Cancer), 48 h, SRB
SF-268 = experiment: NCI DTP 60 cell line screen, SRB; settings: for GI50 / CC50: Homo sapiens, SF-268, 48 h; for CC50: read-out: LC50; for TGI: SF-268 (CNS Cancer), 48 h, SRB
SF-539 = experiment: NCI DTP 60 cell line screen, SRB; settings: for GI50 / CC50: Homo sapiens, SF-539, 48 h; for CC50: read-out: LC50; for TGI: SF-539 (CNS Cancer), 48 h, SRB
UACC-62 = experiment: NCI DTP 60 cell line screen, SRB; settings: for GI50 / CC50: Homo sapiens, UACC-62, 48 h; for CC50: read-out: LC50; for TGI: UACC-62 (Melanoma), 48 h, SRB
DU-145 = DU-145 (Prostate Cancer), 48 h, SRB
MALME-3M = experiment: NCI DTP 60 cell line screen, SRB; settings: 48 h; for GI50 / CC50: Homo sapiens, Malme-3M; for CC50: read-out: LC50; for TGI: MALME-3M (Melanoma), SRB
K-562 [3] = settings: for TI (Therapeutic Index): GI50 (normal blood lymphocyte)/GI50 (K-562); for TGI: K-562 (Leukemia), 48 h, SRB
LOX IMVI = LOX IMVI (Melanoma), 48 h, SRB
KM12 [4] = settings: KM12 (Colon Cancer), 48 h, SRB
NCI/ADR-Res = experiment: NCI DTP 60 cell line screen, SRB; settings: 48 h
SNB-75 = SNB-75 (CNS Cancer), 48 h, SRB
SK-MEL-5 = experiment: NCI DTP 60 cell line screen, SRB; settings: for GI50 / CC50: Homo sapiens, SK-MEL-5, 48 h; for CC50: read-out: LC50; for TGI: SK-MEL-5 (Melanoma), 48 h, SRB
HCT-15 = experiment: NCI DTP 60 cell line screen, SRB; settings: for TGI: HCT-15 (Colon Cancer), 48 h, SRB; for GI50 / CC50: Homo sapiens, HCT-15, 48 h; for CC50: read-out: LC50
SW-620 = SW-620 (Colon Cancer), 48 h, SRB
BT-549 = experiment: NCI DTP 60 cell line screen, SRB; settings: for TGI: BT-549 (Breast Cancer), 48 h, SRB; for GI50 / CC50: Homo sapiens, BT-549, 48 h; for CC50: read-out: LC50
K-562 [5] = experiment: cells; settings: Homo sapiens, K562, 48 h; for CC50: read-out: LC50
SR [6] = settings: for TGI: SR (Leukemia), 48 h, SRB
KM12 [7] = experiment: cells; settings: Homo sapiens, KM12, 48 h; for CC50: read-out: LC50
U251 = U251 (CNS Cancer), 48 h, SRB
CAKI-1 = experiment: NCI DTP 60 cell line screen, SRB; settings: for TGI: CAKI-1 (Renal Cancer), 48 h, SRB; for GI50 / CC50: Homo sapiens, CAKI-1, 48 h; for CC50: read-out: LC50
SR [8] = experiment: cells; settings: Homo sapiens, 48 h; for CC50: read-out: LC50
SK-OV-3 = experiment: NCI DTP 60 cell line screen, SRB; settings: for GI50 / CC50: Homo sapiens, SK-OV-3, 48 h; for CC50: read-out: LC50; for TGI: SK-OV-3 (Ovarian Cancer), 48 h, SRB
SK-MEL-2 [9] = experiment: cells; settings: Homo sapiens, SK-MEL-2, 48 h; for CC50: read-out: LC50
786-0 = experiment: cells; settings: Homo sapiens, 786-0, 48 h; for CC50: read-out: LC50
NCI-H23 [10] = settings: NCI-H23 (Non-Small Cell Lung Cancer), 48 h, SRB
HS 578T = experiment: NCI DTP 60 cell line screen, SRB; settings: 48 h
OVCAR-5 = experiment: NCI DTP 60 cell line screen, SRB
NCI-H522 = experiment: NCI DTP 60 cell line screen, SRB
NCI-H226 = experiment: NCI DTP 60 cell line screen, SRB

Q: What does the source list for O=C(O)CCN1C(=O)/C(=C/C(Cl)=C/c2ccc([N+](=O)[O-])cc2)SC1=S [Compound 2h, 3-{5-[(Z,2Z)-2-Chloro-3-(4-nitrophenyl)-2-propenylidene]-4-oxo-2-thioxothiazolidin-3-yl}propanoic acid]?
A: TGI (SK-MEL-2 [1]): 4.93 µM; GI50 (NCI-H23 [2]): 1.44 µM; CC50 (NCI-H23 [2]): 7.19 µM; GI50 (TK-10): 2.33 µM; CC50 (TK-10): 92 µM; TGI (TK-10): 16.9 µM; GI50 (SF-268): 2.12 µM; CC50 (SF-268): > 100 µM; TGI (SF-268): 9.74 µM; GI50 (SF-539): < 0.01 µM; CC50 (SF-539): 25.8 µM; TGI (SF-539): 0.267 µM; GI50 (UACC-62): 1.23 µM; CC50 (UACC-62): 7.18 µM; TGI (UACC-62): 2.97 µM; TGI (DU-145): 3.48 µM; GI50 (MALME-3M): 9.7 µM; CC50 (MALME-3M): > 100 µM; TGI (MALME-3M): 61.9 µM; TI (Therapeutic Index) (K-562 [3]): 257.26; TGI (K-562 [3]): 2.83 µM; TGI (LOX IMVI): 0.515 µM; TGI (KM12 [4]): 29.5 µM; GI50 (NCI/ADR-Res; Homo sapiens, NCI/ADR-RES): 0.407 µM; CC50 (NCI/ADR-Res; Homo sapiens, NCI/ADR-RES, read-out: LC50): 6.43 µM; TGI (NCI/ADR-Res; NCI/ADR-Res (Breast Cancer), SRB): 2.11 µM; TGI (SNB-75): 46.0 µM; GI50 (SK-MEL-5): 0.0193 µM; CC50 (SK-MEL-5): 1.88 µM; TGI (SK-MEL-5): 0.0849 µM; TGI (HCT-15): 2.96 µM; GI50 (HCT-15): 0.23 µM; CC50 (HCT-15): > 100 µM; TGI (SW-620): 3.25 µM; TGI (BT-549): 0.920 µM; GI50 (BT-549): 0.247 µM; CC50 (BT-549): 36.3 µM; GI50 (K-562 [5]): 0.212 µM; CC50 (K-562 [5]): > 100 µM; TGI (SR [6]): 1.41 µM; GI50 (KM12 [7]): 0.639 µM; CC50 (KM12 [7]): > 100 µM; TGI (U251): 2.00 µM; TGI (CAKI-1): 6.14 µM; GI50 (CAKI-1): 0.485 µM; CC50 (CAKI-1): 47.1 µM; GI50 (SR [8]): < 0.01 µM; CC50 (SR [8]): > 100 µM; TI (Therapeutic Index) (HL-60(TB); GI50 (normal blood lymphocyte)/GI50 (HL-60(TB))): 157.18; TGI (HL-60(TB); HL-60(TB) (Leukemia), 48 h, SRB): 1.87 µM; GI50 (SK-OV-3): 6.83 µM; CC50 (SK-OV-3): 77.6 µM; TGI (SK-OV-3): 27.4 µM; GI50 (SK-MEL-2 [9]): 0.802 µM; CC50 (SK-MEL-2 [9]): 65.1 µM; GI50 (786-0): 1.13 µM; CC50 (786-0): 5.42 µM; TGI (NCI-H23 [10]): 3.22 µM

Q: Which results are given for O=C(O)C(Cc1ccccc1)N1C(=O)/C(=C/C(Cl)=C/c2ccc([N+](=O)[O-])cc2)SC1=S (stereo not shown) [Compound 2j, 2-{5-[(Z,2Z)-2-Chloro-3-(4-nitrophenyl)-2-propenylidene]-4-oxo-2-thioxothiazolidin-3-yl}-3-phenylpropanoic acid]?
A: TGI (SK-MEL-2 [1]): 4.50 µM; GI50 (NCI-H23 [2]): 2.13 µM; CC50 (NCI-H23 [2]): > 100 µM; GI50 (TK-10): 2.43 µM; CC50 (TK-10): > 100 µM; TGI (TK-10): > 100 µM; GI50 (SF-268): 2.21 µM; CC50 (SF-268): > 100 µM; TGI (SF-268): > 100 µM; GI50 (SF-539): 2.74 µM; CC50 (SF-539): > 100 µM; TGI (SF-539): > 100 µM; GI50 (UACC-62): 2 µM; CC50 (UACC-62): 30.2 µM; TGI (UACC-62): 4.85 µM; TGI (HS 578T; HS 578T (Breast Cancer), SRB): > 100 µM; GI50 (HS 578T; Homo sapiens, Hs-578T): 4.37 µM; CC50 (HS 578T; Homo sapiens, Hs-578T, read-out: LC50): > 100 µM; TGI (DU-145): 4.56 µM; GI50 (MALME-3M): 2.13 µM; CC50 (MALME-3M): > 100 µM; TGI (MALME-3M): 4.82 µM; TI (Therapeutic Index) (K-562 [3]): 16.27; TGI (K-562 [3]): > 100 µM; TGI (LOX IMVI): 3.26 µM; TGI (KM12 [4]): 4.35 µM; TGI (SNB-75): 5.37 µM; GI50 (SK-MEL-5): 1.68 µM; CC50 (SK-MEL-5): 5.6 µM; TGI (SK-MEL-5): 3.06 µM; TGI (HCT-15): 4.58 µM; GI50 (HCT-15): 1.92 µM; CC50 (HCT-15): > 100 µM; GI50 (OVCAR-5; Homo sapiens, OVCAR-5, 48 h): 2.82 µM; CC50 (OVCAR-5; Homo sapiens, OVCAR-5, 48 h, read-out: LC50): > 100 µM; TGI (OVCAR-5; OVCAR-5 (Ovarian Cancer), 48 h, SRB): 7.91 µM; TGI (SW-620): 4.39 µM; TGI (BT-549): 4.17 µM; GI50 (BT-549): 1.79 µM; CC50 (BT-549): > 100 µM; GI50 (K-562 [5]): 3.01 µM; CC50 (K-562 [5]): > 100 µM; TI (Therapeutic Index) (SR [6]; GI50 (normal blood lymphocyte)/GI50 (SR)): 19.99; TGI (SR [6]): > 100 µM; GI50 (KM12 [7]): 2.06 µM; CC50 (KM12 [7]): 9.16 µM; GI50 (NCI-H522; Homo sapiens, NCI-H522, 48 h): 1.72 µM; CC50 (NCI-H522; Homo sapiens, NCI-H522, 48 h, read-out: LC50): 29.5 µM; TGI (NCI-H522; NCI-H522 (Non-Small Cell Lung Cancer), 48 h, SRB): 4.47 µM; TGI (U251): 3.52 µM; TGI (CAKI-1): 5.09 µM; GI50 (CAKI-1): 2.28 µM; CC50 (CAKI-1): 16.7 µM; GI50 (SR [8]): 2.45 µM; CC50 (SR [8]): > 100 µM; GI50 (SK-OV-3): 4.13 µM; CC50 (SK-OV-3): > 100 µM; TGI (SK-OV-3): > 100 µM; GI50 (NCI-H226; Homo sapiens, NCI-H226, 48 h): 1.58 µM; CC50 (NCI-H226; Homo sapiens, NCI-H226, 48 h, read-out: LC50): 6.76 µM; TGI (NCI-H226; NCI-H226 (Non-Small Cell Lung Cancer), 48 h, SRB): 3.27 µM; GI50 (SK-MEL-2 [9]): 1.87 µM; CC50 (SK-MEL-2 [9]): > 100 µM; GI50 (786-0): 2.1 µM; CC50 (786-0): > 100 µM; TGI (NCI-H23 [10]): 4.86 µM
